Data on 23 molecules can be found in PubChem BioAssay AID330 (DTP/NCI, 2004).

Values joined by “and” are separate entries in the source; they are usually repeats but may differ in a detail not shown here. Identical values can stand only once. Inconclusive results and toxic doses are left out.

This assay has as its system P388 leukemia ip, CD2F1 mice, survival T/C. Kind of assay: NCI In Vivo Anticancer Drug Screen. Data for tumor model P388 Leukemia (intraperitoneal) in CD2F1 (CDF1) mice. The conditions noted are these: endpoint: median survival time, higher = longer survival. In short, it runs like this: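 Mice carrying the transplanted tumor received test compound or vehicle. Survival was recorded in each group, and the value is the treated-group measurement divided by that of the vehicle-treated control group.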

The mark [1] stands for this setting: dose: 50.0 mg/kg/injection, schedule: Q01DX005 (ip), vehicle: Klucel (hydroxypropylcellulose) (HPC).
Setting [2] is: dose: 100.0 mg/kg/injection, schedule: Q01DX005 (ip), vehicle: Klucel (hydroxypropylcellulose) (HPC).
Setting [3] is: dose: 50.0 mg/kg/injection, schedule: Q01DX005 (ip), vehicle: saline with Tween-80.
The mark [4] stands for this setting: dose: 100.0 mg/kg/injection, schedule: Q01DX005 (ip), vehicle: saline with Tween-80.
Setting [5] is: dose: 200.0 mg/kg/injection, schedule: Q01DX005 (ip), vehicle: saline with Tween-80.
Setting [6] is: dose: 100.0 mg/kg/injection, schedule: Q04DX002 (ip), vehicle: saline with Tween-80.
Setting [7] is: dose: 200.0 mg/kg/injection, schedule: Q04DX002 (ip), vehicle: saline with Tween-80.
The mark [8] stands for this setting: dose: 400.0 mg/kg/injection, schedule: Q04DX002 (ip), vehicle: saline with Tween-80.
[9] abbreviates: dose: 50.0 mg/kg/injection, schedule: Q01DX009 (ip), vehicle: saline with Tween-80.
[10] abbreviates: dose: 100.0 mg/kg/injection, schedule: Q01DX001 (ip), vehicle: saline with Tween-80.
Setting [11] is: dose: 100.0 mg/kg/injection, schedule: Q01DX009 (ip), vehicle: saline with Tween-80.
The mark [12] stands for this setting: dose: 200.0 mg/kg/injection, schedule: Q01DX001 (ip), vehicle: saline with Tween-80.
Setting [13] is: dose: 200.0 mg/kg/injection, schedule: Q01DX009 (ip), vehicle: saline with Tween-80.
The mark [14] stands for this setting: dose: 400.0 mg/kg/injection, schedule: Q01DX001 (ip), vehicle: saline with Tween-80.
[15] abbreviates: dose: 50.0 mg/kg/injection, schedule: Q01DX009 (ip), vehicle: Klucel (hydroxypropylcellulose) (HPC).
Setting [16] is: dose: 100.0 mg/kg/injection, schedule: Q01DX009 (ip), vehicle: Klucel (hydroxypropylcellulose) (HPC).
[17] abbreviates: dose: 200.0 mg/kg/injection, schedule: Q01DX009 (ip), vehicle: Klucel (hydroxypropylcellulose) (HPC).
[18] abbreviates: dose: 25.0 mg/kg/injection, schedule: Q01DX005 (ip), vehicle: saline with Tween-80.

Turning to `COC(=O)C1CC(I)C2OC(=O)C1C2C(=O)OC` (stereo unspecified), the T/C was 91 % of control (dose: 60.0 mg/kg/injection, schedule: Q01DX005 (ip), vehicle: saline with Tween-80); 99 % of control (dose: 120.0 mg/kg/injection, schedule: Q01DX005 (ip), vehicle: saline with Tween-80); 97 % of control (dose: 240.0 mg/kg/injection, schedule: Q01DX005 (ip), vehicle: saline with Tween-80).
On to `Cc1cccc(-n2c(C)nc3[nH]cc(C)c3c2=N)c1`, for which the T/C was 99 % of control under setting [1] and 105 % of control under setting [2].
Turning to `CCOc1ccc(Nc2ncnc3sc4c(c23)CCCC4)cc1`, the T/C by setting is: under setting [3], 100 % of control; under setting [4], 102 % of control; under setting [5], 109 % of control.
`Clc1ccc(-n2cnn3c(-c4ccccc4)ncc23)cc1`: the T/C reads like this: under setting [6], 90 % of control; under setting [7], 87 % of control; under setting [8], 93 % of control.
Turning to `CCCCNC(C)C1(O)Cc2c(O)c3c(c(O)c2C(OC2CC(N)C(O)C(C)O2)C1)C(=O)c1c(OC)cccc1C3=O` (stereo unspecified), the T/C is 111 % of control (dose: 0.62 mg/kg/injection, schedule: Q01DX009 (ip), vehicle: water); 158 % of control and 161 % of control (dose: 10.0 mg/kg/injection, schedule: Q01DX009 (ip), vehicle: water); 172 % of control and 181 % of control (dose: 20.0 mg/kg/injection, schedule: Q01DX009 (ip), vehicle: water); 224 % of control (dose: 40.0 mg/kg/injection, schedule: Q01DX009 (ip), vehicle: water); 218 % of control (dose: 80.0 mg/kg/injection, schedule: Q01DX009 (ip), vehicle: water).
Turning to `CCOC(=O)c1c[nH][nH]c1=O`, the T/C is 95 % of control (dose: 25.0 mg/kg/injection, schedule: Q01DX009 (ip), vehicle: saline with Tween-80); 93 % of control under setting [9]; 98 % of control under setting [10]; 101 % of control under setting [11]; 106 % of control under setting [12]; 100 % of control under setting [13]. Besides, the T/C under setting [14] was 94 % of control.
With `O=C1NC(=O)c2ccc3c4ccc5c6c(ccc(c7ccc1c2c73)c46)c(=O)n1c2ccccc2nc51`, the T/C is 94 % of control (dose: 90.0 mg/kg/injection, schedule: Q01DX001 (ip), vehicle: Klucel (hydroxypropylcellulose) (HPC)); 94 % of control (dose: 180.0 mg/kg/injection, schedule: Q01DX001 (ip), vehicle: Klucel (hydroxypropylcellulose) (HPC)); 92 % of control (dose: 360.0 mg/kg/injection, schedule: Q01DX001 (ip), vehicle: Klucel (hydroxypropylcellulose) (HPC)).
For `CC(O)c1nc2ncc(Br)cc2[nH]1` (stereo unspecified), the T/C runs as follows: under setting [10], 93 % of control; under setting [12], 99 % of control; under setting [14], 101 % of control.
As to `O=c1[nH]cnc2c1CCc1ccccc1-2`, the T/C by setting is: under setting [6], 93 % of control; under setting [7], 100 % of control; under setting [8], 102 % of control.
With `CCC(=O)Nc1c(O)c(Br)c(NC(=O)CC)c(O)c1Br`, the T/C by setting is: (dose: 60.0 mg/kg/injection, schedule: Q01DX005 (ip), vehicle: saline) 104 % of control; (dose: 120.0 mg/kg/injection, schedule: Q01DX005 (ip), vehicle: saline) 100 % of control; (dose: 240.0 mg/kg/injection, schedule: Q01DX005 (ip), vehicle: saline) 105 % of control.
Consider `COc1ccc(N=NC2C(=O)N(C(=O)c3ccncc3)N=C2C)cc1` (stereo unspecified), for which the T/C is 95 % of control under setting [9], 95 % of control under setting [11] and 96 % of control under setting [13].
For `CC1=C2C(=C[C@@](C)(CO)[C@@H]2O)C(=O)[C@](C)(O)C12CC2`, the T/C was 109 % of control (dose: 0.05 mg/kg/injection, schedule: Q01DX010 (ip), vehicle: saline); 118 % of control (dose: 0.1 mg/kg/injection, schedule: Q01DX010 (ip), vehicle: saline); 95 % of control (dose: 0.8 mg/kg/injection, schedule: Q01DX010 (ip), vehicle: saline).
As to `NS(=O)(=O)c1ccc(NC(=S)S)cc1`, the T/C reads like this: under setting [15], 107 % of control; under setting [16], 107 % of control; under setting [17], 91 % of control.
As to `c1ccc2c(c1)ccc1c3ccccc3sc21`, the T/C under setting [1] is 101 % of control; the T/C under setting [2] is 110 % of control; the T/C (dose: 200.0 mg/kg/injection, schedule: Q01DX005 (ip), vehicle: Klucel (hydroxypropylcellulose) (HPC)) is 103 % of control.
In the case of `CNc1nc2c(C)ccc3[nH]c(NC)nc3c-2n1`, the T/C by setting is: (dose: 8.0 mg/kg/injection, schedule: Q01DX005 (ip), vehicle: Klucel (hydroxypropylcellulose) (HPC)) 95 % of control; (dose: 16.0 mg/kg/injection, schedule: Q01DX005 (ip), vehicle: Klucel (hydroxypropylcellulose) (HPC)) 100 % of control; (dose: 32.0 mg/kg/injection, schedule: Q01DX005 (ip), vehicle: Klucel (hydroxypropylcellulose) (HPC)) 90 % of control; (dose: 64.0 mg/kg/injection, schedule: Q01DX005 (ip), vehicle: Klucel (hydroxypropylcellulose) (HPC)) 88 % of control.
`O=CNCc1ccc(S(=O)(=O)F)cc1`: the T/C was 93 % of control (dose: 12.5 mg/kg/injection, schedule: Q01DX009 (ip), vehicle: other); 92 % of control (dose: 25.0 mg/kg/injection, schedule: Q01DX009 (ip), vehicle: other); 99 % of control (dose: 50.0 mg/kg/injection, schedule: Q01DX009 (ip), vehicle: other); 100 % of control (dose: 100.0 mg/kg/injection, schedule: Q01DX009 (ip), vehicle: other).
For `CC(C)(C)C(S)CS` (stereo unspecified), the T/C was 104 % of control (dose: 12.5 mg/kg/injection, schedule: Q01DX005 (ip), vehicle: saline with Tween-80); 104 % of control under setting [18]; 101 % of control and 103 % of control under setting [3].
For `c1ccc2c(c1)Cc1c-2nc2ccccc2c1N1CCOCC1`, the T/C by setting is: under setting [18], 100 % of control; under setting [3], 106 % of control and 93 % of control; under setting [4], 103 % of control and 112 % of control; under setting [5], 119 % of control.
For `COc1cc(O)c(CC=C(C)C)cc1O`, the T/C is, setting by setting: under setting [1], 105 % of control; under setting [2], 101 % of control.
Take `C=C(C)C12OC1[C@@]1(C)C(=CC2=O)CCC(O)[C@@H]1C` (stereo partly specified): the T/C was 101 % of control (dose: 20.0 mg/kg/injection, schedule: Q01DX005 (ip), vehicle: saline); 104 % of control (dose: 40.0 mg/kg/injection, schedule: Q01DX005 (ip), vehicle: saline); 100 % of control (dose: 80.0 mg/kg/injection, schedule: Q01DX005 (ip), vehicle: saline).
Regarding `O=C(OCCCN1CCCC1)C(c1ccccc1)C1C=CCC1` (stereo unspecified), the T/C is, setting by setting: (dose: 6.25 mg/kg/injection, schedule: Q01DX009 (ip), vehicle: Klucel (hydroxypropylcellulose) (HPC)) 100 % of control; (dose: 12.5 mg/kg/injection, schedule: Q01DX009 (ip), vehicle: Klucel (hydroxypropylcellulose) (HPC)) 98 % of control; (dose: 25.0 mg/kg/injection, schedule: Q01DX009 (ip), vehicle: Klucel (hydroxypropylcellulose) (HPC)) 100 % of control; under setting [15], 101 % of control; under setting [16], 95 % of control; under setting [17], 100 % of control. Also, the T/C (dose: 400.0 mg/kg/injection, schedule: Q01DX009 (ip), vehicle: Klucel (hydroxypropylcellulose) (HPC)) is 100 % of control.
As for `CCOC(=O)c1c(O)cc(C)[nH]c1=O`, the T/C runs as follows: under setting [9], 103 % of control and 96 % of control; under setting [11], 100 % of control and 94 % of control and 98 % of control; under setting [13], 103 % of control and 106 % of control and 93 % of control; (dose: 400.0 mg/kg/injection, schedule: Q01DX009 (ip), vehicle: saline with Tween-80) 104 % of control and 106 % of control and 122 % of control.
As for `CCOC1=CCCCC1`, the T/C is, setting by setting: (dose: 100.0 mg/kg/injection, schedule: Q04DX003 (ip), vehicle: alcohol) 100 % of control; (dose: 200.0 mg/kg/injection, schedule: Q04DX003 (ip), vehicle: alcohol) 100 % of control; (dose: 400.0 mg/kg/injection, schedule: Q04DX003 (ip), vehicle: alcohol) 104 % of control.
